The subject of the test is MDA-MB-436 cells. Description: CEL-Dox cytotoxicity, Dojindo cell viability assay (Example 1). The class given is cell-based, human. Particulars: 6 h treatment, grown 48 h, CEL-Dox at 1.5:1. The method, then:
The cytotoxicity of CEL-Dox on TNBC cells were evaluated using a cell viability assay. 5×10^3 cells (MDA-MB-231 and MDA-MB-436) were seeded in each well of a 96 well plate and incubated for 24 h. Cells were treated with (1) PBS, (2) Free Dox, (3) non-specific IgG-conjugated, Dox-encapsulating liposomes (IgG-Dox-LPs), (4) ICAM-1 antibody-conjugated, Dox-encapsulating liposomes (ICAM-1-Dox-LP), (5) EGFR antibody-conjugated, Dox-encapsulating liposomes (EGFR-Dox-LP), and (6) Dox-encapsulating CELs at optimal ICAM-1/EGFR antibody ratios (4.2/1 for MDA-MB-231 cells, and 1.5/1 for MDA-MB-436 cells) at the final liposome concentration of 1 μM lipids per 10^6 cells for 6 hours. Cells were rinsed three times with PBS and grown for 48 hours. Cell viability was determined by a Dojindo cell counting kit using the protocol from the manufacturer (Rockville, Md.).

Molecules are shown by their SMILES.

With `COc1cccc2c1C(=O)c1c(O)c3c(c(O)c1C2=O)C[C@@](O)(C(=O)CO)C[C@@H]3O[C@H]1C[C@H](N)[C@H](O)[C@H](C)O1` [free Dox, doxorubicin], the “half maximal inhibitory concentration (IC50)” value is 0.0355 µg/mL.

Source of the values: patent US11260132B2, “Engineered liposomes as cancer-targeted therapeutics” (Children's Medical Center Corporation, priority 2017, dated 2022).
